Experimental data published in patent US20100285959A1, “HERBICIDAL MIXTURES” (priority 2006, published 2010).

Experiments:
[1] = tested on: common dandelion (TAROF); test: Test 9 field trial, emerged weeds before corn planting; assay type: in vivo, Taraxacum officinale; conditions: g a.i./ha: Cpd 2 100, Glyphosate 1540, Paraquat 1150
Procedure: Corn seeds (hybrid ‘Pioneer 34M91 RR’) were planted in mid spring season, about 3.8 cm deep in a silty clay loam soil having a pH of 6.7. Plots were 9.1 m long by 3.0 m. The field was managed using no-till practices. […] Compound 2 and paraquat treatments, alone and in combination, also included a surfactant. Glyphosate, alone and with Compound 2, included ammonium sulfate in the treatment mixture. […] The effects on the weeds in the treated plots and untreated control plots were recorded 7, 14, 23, 30 and 57 days after application. Most of the weed species could not be evaluated at every timing. Corn response was only evaluated 57 days after application. […] Results are the means of the three replicates.

[2] = tested on: Italian cocklebur (XANSI); test: Test 12 field trial, preemergence; assay type: in vivo, Xanthium strumarium ssp. italicum; design: scale not given here; conditions: Cpd 2 or Cpd 1 62 g a.i./ha, Diuron 2000 g a.i./ha
From the text: (§1) In early-mid spring season, corn seeds (hybrid ‘Pioneer 3041’) were planted 5 cm deep and sugarcane nodes (variety RB-72.454) were planted 10 cm deep in separate plots in a clay soil having 2.6% organic matter and a pH of 5.6. Plots were 24 m long by 1.5 m wide with rows spaced 80 cm (corn) or 140 cm (sugarcane) apart. Corn seeds were spaced 15 cm apart and sugarcane nodes were spaced 10 cm apart within the rows. At the same time, weed seeds were broadcast over the surface of separate plots without a crop, one weed species per plot. The weed plots were rotary tilled to incorporate the weed seeds to a variety of depths. The field was managed using conventional tillage practices.

[3] = tested on: common sugarcane (SACOF); test: Test 12 field trial, preemergence; assay type: in vivo, Saccharum officinarum; design: scale not given here; conditions: Cpd 2 or Cpd 1 62 g a.i./ha, Diuron 2000 g a.i./ha
From the text: as §1

[4] = tested on: yellow nutsedge (CYPES); test: Test 14 field trial, preemergence, growth as percent of control; assay type: in vivo, Cyperus esculentus
From the text: Corn seeds (hybrid ‘Pioneer 31G96 RR’) were planted in mid spring season, 3.8 cm deep in a clay loam soil having 2% organic matter and a pH of 6.6. Plots were 6.1 m long by 3.0 m wide with rows spaced 76 cm apart. Seeds were spaced 15 cm apart within the rows. The field was managed using conventional tillage practices. […] Yellow nutsedge was only evaluated 19 and 28 days after application, and ivyleaf morningglory could only be evaluated 28 days after application. […] Results are the means of the three replicates. This growth inhibition data was converted to results in the form of “plant growth as a percent of control plant growth” using the calculation “100 minus growth inhibition”. […] For “growth as a percent of control” data, Colby's Equation calculates the expected additive effect of herbicidal mixtures having two active ingredients as follows:
Ga+b=GaGb/100 • wherein Ga+b is the growth as a percent of control of plants treated with the mixture expected from additive contribution of the individual components, • Ga is the observed growth as a percent of control of plants treated with the first active ingredient at the same use rate as in the mixture, and • Gb is the observed growth as a percent of control of plants treated with the second active ingredient at the same use rate as in the mixture. For mixtures having three active ingredients, Colby's Equation to calculate the expected additive effect of herbicidal mixtures is as follows:
Ga+b+c=GaGbGc/10,000 • wherein Ga and Gb are as defined above and • Ga+b+c is the growth as a percent of control of plants treated with the mixture expected from additive contribution of the individual components, and • Gc is the observed growth as a percent of control of plants treated with the third active ingredient at the same use rate as in the mixture. When these two forms of Colby's Equation are used, if the observed effects on weeds are less than the expected values, the mixture is synergistic.

[5] = tested on: Pennsylvania smartweed (POLPY); test: Test 7 field trial, preemergence; assay type: in vivo, Polygonum pensylvanicum
Procedure: Plots were 7.6 m long by 3.0 m wide with rows spaced 76 cm apart. Seeds were spaced 15 cm apart within the rows. The field was managed using conventional tillage practices. […] Wild radish was evaluated 14 and 28 days after application. […] Results are the means of the three replicates.

[6] = tested on: common lambsquarters (CHEAL); test: Test 23 growth chamber, postemergence; assay type: in vivo, Chenopodium album; conditions: 21 DAA
Procedure: (§2) A test was conducted to evaluate the effects on winter barley (HORVW, Hordeum vulgare L.), winter wheat (TRZAW, Triticum aestivum L.), and several weed species of mixtures of Compound 2 with the commercial herbicides (2,4-dichlorophenoxy)acetic acid (2,4-D) and (4-chloro-2-methylphenoxy)acetic acid (MCPA), auxin mimics. […] Plants were treated postemergence at the 2-4 leaf growth stage, and each treatment was replicated three times. […] Plants were watered as needed. […] Results are means of the three replicates.

[7] = tested on: wild chamomile (MATCH); test: Test 21 growth chamber, postemergence; assay type: in vivo, Matricaria chamomilla; conditions: 19 DAA
Procedure: as §2, with “species,” for “species”, “herbicide” for “herbicides”, “(2,4-D), an” for “(2,4-D) and (4-chloro-2-methylphenoxy)acetic acid (MCPA),”, “mimic.” for “mimics.”, “one time.” for “three times.”, “from single” for “means of the three”

[8] = tested on: Russian thistle (SASKR); test: Test 22 growth chamber, postemergence; assay type: in vivo, Salsola kali; conditions: 25 DAA
Procedure: as §2, with “stage, except KCHSC, SASKR” for “stage,”, “STEME which were in the 4-8 leaf growth stage. Each” for “each”, “one time.” for “three times.”, “from single” for “means of the three”

[9] = 2,4-D or MCPA alone 250 g a.i./ha

## O=C(O)CNCP(=O)(O)O [Glyphosate]
[1]; 7 DAA
  TAROF Obs: 37%
[1]; 14 DAA
  TAROF Obs: 62%
[1]; 23 DAA
  TAROF Obs: 83%
[1]; 30 DAA
  TAROF Obs: 90%
[1]; 57 DAA
  TAROF Obs: 88%

## Nc1nc(C2CC2)nc(C(=O)O)c1Cl [Compound 1, 6-amino-5-chloro-2-cyclopropyl-4-pyrimidinecarboxylic acid]
[2]; 15 DAA
  XANSI Obs: 40
[2]; 29 DAA
  XANSI Obs: 90
[2]; 48 DAA
  XANSI Obs: 90
[2]; 61 DAA
  XANSI Obs: 60
[3]; 15 DAA
  SACOF Obs: 0
[3]; 29 DAA
  SACOF Obs: 0
[3]; 48 DAA
  SACOF Obs: 0
[3]; 61 DAA
  SACOF Obs: 5

## CCc1cccc(C)c1N(C(=O)CCl)[C@@H](C)COC [S-Metolachlor, S-metolachlor, reference compound]
[4]; 28 DAA, 1870 g a.i./ha
  Obs growth % of control: 8%
[5]; 14 DAA, 1000 g a.i./ha
  POLPY Obs: 60%
[5]; 28 DAA, 1000 g a.i./ha
  POLPY Obs: 45%
[5]; 62 DAA, 1000 g a.i./ha
  POLPY Obs: 10%

## COC(=O)c1nc(C2CC2)nc(N)c1Cl [Compound 2, methyl 6-amino-5-chloro-2-cyclopropyl-4-pyrimidinecarboxylate]
[6]; Cpd 2 alone 4 g a.i./ha
  Postemergence CHEAL Obs: 53
[6]; Cpd 2 alone 8 g a.i./ha
  Postemergence CHEAL Obs: 55
[6]; Cpd 2 alone 16 g a.i./ha
  Postemergence CHEAL Obs: 55
[2]; 15 DAA
  XANSI Obs: 0
[2]; 29 DAA
  XANSI Obs: 70
[2]; 48 DAA
  XANSI Obs: 60
[2]; 61 DAA
  XANSI Obs: 40
[1]; 7 DAA
  TAROF Obs: 37%
[1]; 14 DAA
  TAROF Obs: 38%
[1]; 23 DAA
  TAROF Obs: 60%
[1]; 30 DAA
  TAROF Obs: 65%
[1]; 57 DAA
  TAROF Obs: 84%
[7]; Cpd 2 alone 16 g a.i./ha
  Postemergence MATCH Obs: 60
[4]; 19 DAA, 75 g a.i./ha
  Obs growth % of control: 85%
[4]; 19 DAA, 100 g a.i./ha
  Obs growth % of control: 78%
[4]; 28 DAA, 75 g a.i./ha
  Obs growth % of control: 85%
[4]; 28 DAA, 100 g a.i./ha
  Obs growth % of control: 90%
[5]; 14 DAA, 125 g a.i./ha
  POLPY Obs: 77%
[5]; 14 DAA, 250 g a.i./ha
  POLPY Obs: 95%
[5]; 14 DAA, 500 g a.i./ha
  POLPY Obs: 97%
[5]; 28 DAA, 125 g a.i./ha
  POLPY Obs: 70%
[5]; 28 DAA, 250 g a.i./ha
  POLPY Obs: 93%
[5]; 28 DAA, 500 g a.i./ha
  POLPY Obs: 97%
[5]; 62 DAA, 125 g a.i./ha
  POLPY Obs: 40%
[5]; 62 DAA, 500 g a.i./ha
  POLPY Obs: 100%
[3]; 15 DAA
  SACOF Obs: 0
[3]; 29 DAA
  SACOF Obs: 0
[3]; 48 DAA
  SACOF Obs: 0
[3]; 61 DAA
  SACOF Obs: 5
[8]; Cpd 2 alone 4 g a.i./ha
  Postemergence SASKR Obs: 50
[8]; Cpd 2 alone 8 g a.i./ha
  Postemergence SASKR Obs: 50
[8]; Cpd 2 alone 16 g a.i./ha
  Postemergence SASKR Obs: 55

## O=C(O)COc1ccc(Cl)cc1Cl [2,4-D, (2,4-dichlorophenoxy)acetic acid]
[6]; [9]
  Postemergence CHEAL Obs: 58
[7]; 2,4-D alone 125 g a.i./ha
  Postemergence MATCH Obs: 40
[7]; 2,4-D alone 250 g a.i./ha
  Postemergence MATCH Obs: 45
[8]; [9]
  Postemergence SASKR Obs: 60
